Test results reported in publication PMC3267017, “Design, synthesis and in vitro evaluation of novel bivalent S-adenosylmethionine analogues” (Bioorganic & Medicinal Chemistry Letters, 2012).
Structures can show the parent of a compound that is named as a salt. Where two headings read alike, the source gives them in different places.

What was measured:
[1] = target: T1, MetJ dimer–DNA complex (F-metC) (Escherichia coli, UniProt P0A8U6); set-up: method as in PMID 19194573; conditions: monovalent ligand 4, 2 mM; F-metC 10 nM; read-out: EC50, concentration of MetJ monomer required to promote half-maximal formation of its complex with the F-metC DNA; cited from earlier work
T1 sequence (P0A8U6 2-105, one chain of several): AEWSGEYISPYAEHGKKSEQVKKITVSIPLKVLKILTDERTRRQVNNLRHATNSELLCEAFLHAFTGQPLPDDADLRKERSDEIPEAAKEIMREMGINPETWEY

[2] = target: T1, MetJ dimer–DNA complex (F-metC); assay: Fluorescence anisotropy assay: MetJ titrated into F-metC DNA and ligand, MetJ dimer–DNA complex formation; assay type: binding; conditions: for EC50: bivalent ligand 1 mM, F-metC 10 nM, DMSO 2%, average of three titrations, read-out: EC50, concentration of MetJ monomer required to promote half-maximal formation of its complex with the F-metC DNA
Excerpt: A fluorescence anisotropy-based binding assay was used to compare the relative ability of SAM analogues to promote MetJ dimer–DNA complex formation. Since SAM has low affinity for MetJ in the absence of DNA,[8,13] measurements were made in the presence of the DNA fragment F-metC, a fluorescently-labeled analogue of the shortest naturally occurring operator sequence, metC.[14] Titration of MetJ into a solution containing fixed concentrations of F-metC and ligand allows the change in anisotropy related to ternary complex formation to be measured (Fig. 5).
Figure 5 Cartoon illustrating the fluorescence anisotropy assay. The SAM molecules promote the formation of a SAM–F-metC–protein complex, with two MetJ dimers bound to the 18 base-pair DNA duplex.
The half-maximal concentration of MetJ, EC50, required to promote complex formation was determined for each ligand. […] The monovalent ligands 11 and 12 (2 mM) and the bivalent ligands 9 and 10 (1 mM) all promoted the formation of the MetJ–DNA complex (Table 1). […] The unquaternised bivalent ligands 9a–e (1 mM) promoted complex formation up to about threefold more effectively than the corresponding monovalent analogue 11. Similarly, the quaternised bivalent ligands 10a and 10b promoted, respectively, complex formation 2.4- and 3.6-fold more effectively than the quaternised monovalent analogue 12.
Analysis of novel SAM analogues binding to MetJ in the presence of operator DNA was carried out using fluorescence anisotropy. Fluorescence anisotropy experiments were performed on a Spex Fluorolog Tau spectrofluorometer (HORIBA Jobin Yvon) controlled by Datamax software. The excitation and emission wavelengths were set to 488 nm and 517 nm respectively. Slit widths were set to 5 nm and all experiments were carried out at 19 °C. The detector integration time was 5 seconds and three readings were taken of each sample to obtain an average anisotropy. Free anisotropy values were 0.051-0.060. Increase in fluorescence anisotropy was observed upon titration of MetJ into a solution of F-metC (10 nM) with and without ligand ([…]) in TK buffer pH 7.6 (50 mM Trizma hydrochloride pH 7.6, 100 mM KCl) with a total starting volume of 200 µL. […] The final DMSO concentration was 2% or less. After each addition, the sample was mixed with a pipette and left to equilibrate for five minutes before the fluorescence anisotropy readings were acquired. The intensity of linear and perpendicular light, compared to the excitation light is measured experimentally and the anisotropy was calculated using the following equation:‖
The data was fitted to a sigmoidal growth logistic model using the following equation: […]
Where A1 refers to the initial value, A2 refers to the final value, x0 refers to the centre and p is a value relating to the slope of the transition. Errors refer the standard deviation of three titration repeats. An arbitrary weighting function with the following equation was employed: […]

Row | Structure (SMILES) | EC50 [1] [nM] | EC50 [2] [nM] | Fold-improvement over monovalent control 11 ([2]; unquaternised bivalent ligand 1 mM vs 11 at 2 mM)
1 | CCCNC(=O)CCCN(C)C[C@H]1O[C@@H](n2cnc3c(N)ncnc32)[C@H](O)[C@@H]1O [Compound 4] | 1000 ± 100 |  | 
2 | C[N+](C)(CC[C@H](N)C(=O)NCc1cccc(CNC(=O)[C@@H](N)CC[N+](C)(C)C[C@H]2O[C@@H](n3cnc4c(N)ncnc43)[C@H](O)[C@@H]2O)c1)C[C@H]1O[C@@H](n2cnc3c(N)ncnc32)[C@H](O)[C@@H]1O [Compound 10b, N,N′-(1,3-Phenylenebismethylene)bis{(2′S)-2′-amino-4′-[5′′-deoxy-5′′-(dimethylamino)-adenosyl]butanamide}iodide tetratrifluoroacetic acid salt] |  | 10 ± 1 | 
3 | CN(CC[C@H](N)C(=O)NCc1ccc(CNC(=O)[C@@H](N)CCN(C)C[C@H]2O[C@@H](n3cnc4c(N)ncnc43)[C@H](O)[C@@H]2O)cc1)C[C@H]1O[C@@H](n2cnc3c(N)ncnc32)[C@H](O)[C@@H]1O [Compound 9a, N,N′-(1,4-Phenylenebismethylene)bis{(2′S)-2′-amino-4′-[5′′-deoxy-5′′-(methylamino)-adenosyl]butanamide}] |  | 61 ± 3 | 2.0-fold
